Assay results taken from paper PMC12367838, “Relevance of kinetic interactions and co-formulants for plant protection product liver toxicity in vitro” (Archives of Toxicology, 2025).

Assays:
HepaRG cells [1] = assay: WST-1 cytotoxicity assay; format: cell-based, human; conditions: WST-1 assay, 72 h incubation
Experimental: Wild-type human hepatoma HepaRG cells obtained from Biopredic International (Saint Grégoire, France) were cultivated for 4 weeks in a Binder cell culture incubator maintained at 37 °C in a 5% humidified atmosphere with 5% CO2 before they were employed in this study. The 4 weeks consisted of 2 weeks of proliferation and 2 weeks of differentiation. […]
Cytotoxicity assays were performed in 96-well plates at a density of 9000 cells per well, and test compounds were incubated for 72 h. […] After the 30-min incubation with WST-1, absorbance was measured at 450 nm corrected by a reference at 620 nm (λexc = 450 nm/λemi = 620 nm) using an Infinite M200 PRO plate reader (Tecan; Männedorf, Switzerland). […] The absorbed dye was quantified by fluorescence measurement (λexc = 530 nm/λemi = 645 nm) on an Infinite M200 PRO plate reader (Tecan; Männedorf, Switzerland). Background corrected viability values of both assays were expressed as a percentage of untreated cells. […] Means and standard deviations for each treatment were calculated. […]

HepaRG cells [2] = assay: Total RNA sequencing, differential gene expression
[3] = high sub-cytotoxic concentration, 24 h, vs solvent control
[4] = low sub-cytotoxic concentration, 24 h, vs solvent control

## C#CCOc1ccc(CCNC(=O)C(OCC#C)c2ccc(Cl)cc2)cc1OC (stereo not shown) [MDP, mandipropamid]
HepaRG cells [1]
  EC50 for cytotoxicity: 245 µg/mL
HepaRG cells [2]; gene ACOX1, MDP_HIGH
  Fold change ACOX1: 0.9326
  log2FoldChange ACOX1: -0.1007
HepaRG cells [2]; gene AHR, MDP_HIGH
  Fold change AHR: 1.696
  log2FoldChange AHR: 0.7618
HepaRG cells [2]; gene CD36, MDP_HIGH
  Fold change CD36: 1.4443
  log2FoldChange CD36: 0.5304
HepaRG cells [2]; gene CYP1A1, MDP_HIGH
  Fold change CYP1A1: 10.9554
  log2FoldChange CYP1A1: 3.454
HepaRG cells [2]; gene CYP1A2, MDP_HIGH
  Fold change CYP1A2: 0.4656
  log2FoldChange CYP1A2: -1.103
HepaRG cells [2]; gene CYP2B6, MDP_HIGH
  Fold change CYP2B6: 1.009
  log2FoldChange CYP2B6: 0.01275
HepaRG cells [2]; gene CYP2C9, MDP_HIGH
  Fold change CYP2C9: 0.1687
  log2FoldChange CYP2C9: -2.568
HepaRG cells [2]; gene CYP2C19, MDP_HIGH
  Fold change CYP2C19: 0.1531
  log2FoldChange CYP2C19: -2.707
HepaRG cells [2]; gene CYP2D6, MDP_HIGH
  Fold change CYP2D6: 0.9227
  log2FoldChange CYP2D6: -0.116
HepaRG cells [2]; gene CYP3A4, MDP_HIGH
  Fold change CYP3A4: 0.7016
  log2FoldChange CYP3A4: -0.5112
HepaRG cells [2]; gene FASN, MDP_HIGH
  Fold change FASN: 1.131
  log2FoldChange FASN: 0.178
HepaRG cells [2]; gene INSIG1, MDP_HIGH
  Fold change INSIG1: 1.034
  log2FoldChange INSIG1: 0.04872
HepaRG cells [2]; gene MLXIPL, MDP_HIGH
  Fold change MLXIPL: 0.6622
  log2FoldChange MLXIPL: -0.5947
HepaRG cells [2]; gene NR1H2, MDP_HIGH
  Fold change NR1H2: 1.431
  log2FoldChange NR1H2: 0.5168
HepaRG cells [2]; gene NR1H4, MDP_HIGH
  Fold change NR1H4: 0.8415
  log2FoldChange NR1H4: -0.249
HepaRG cells [2]; gene NR1I2, MDP_HIGH
  Fold change NR1I2: 0.5918
  log2FoldChange NR1I2: -0.7568
HepaRG cells [2]; gene NR1I3, MDP_HIGH
  Fold change NR1I3: 0.06449
  log2FoldChange NR1I3: -3.955
HepaRG cells [2]; gene NR3C1, MDP_HIGH
  Fold change NR3C1: 1.123
  log2FoldChange NR3C1: 0.1669
HepaRG cells [2]; gene PPARA, MDP_HIGH
  Fold change PPARA: 0.7275
  log2FoldChange PPARA: -0.4589
HepaRG cells [2]; gene PPARG, MDP_HIGH
  Fold change PPARG: 4.604
  log2FoldChange PPARG: 2.203
HepaRG cells [2]; gene RARA, MDP_HIGH
  Fold change RARA: 1.153
  log2FoldChange RARA: 0.2052
HepaRG cells [2]; gene RARB, MDP_HIGH
  Fold change RARB: 2.749
  log2FoldChange RARB: 1.459
HepaRG cells [2]; gene RARG, MDP_HIGH
  Fold change RARG: 1.386
  log2FoldChange RARG: 0.4711
HepaRG cells [2]; gene SCD, MDP_HIGH
  Fold change SCD: 0.8254
  log2FoldChange SCD: -0.2768
HepaRG cells [2]; gene SREBF1, MDP_HIGH
  Fold change SREBF1: 0.451
  log2FoldChange SREBF1: -1.149
HepaRG cells [2]; [3]
  CYP1A1 Fold change: ≈ 11
  NR1I3 Fold change: ≈ 0.06
  SREBF1 Fold change: ≈ 0.45
HepaRG cells [2]; [4]
  ACOX1 Fold change: 1.035
  ACOX1 log2FoldChange: 0.04967
  AHR Fold change: 1.296
  AHR log2FoldChange: 0.3736
  CD36 Fold change: 1.929
  CD36 log2FoldChange: 0.9479
  CYP1A1 Fold change: 5.261
  CYP1A1 log2FoldChange: 2.395
  CYP1A2 Fold change: 0.6714
  CYP1A2 log2FoldChange: -0.5747
  CYP2B6 Fold change: 1.3371
  CYP2B6 log2FoldChange: 0.4191
  CYP2C9 Fold change: 0.329
  CYP2C9 log2FoldChange: -1.6038
  CYP2C19 Fold change: 0.4073
  CYP2C19 log2FoldChange: -1.2958
  CYP2D6 Fold change: 0.5576
  CYP2D6 log2FoldChange: -0.8427
  CYP3A4 log2FoldChange: 1.049
  FASN Fold change: 1.765
  FASN log2FoldChange: 0.8201
  INSIG1 Fold change: 1.785
  INSIG1 log2FoldChange: 0.8359
  MLXIPL Fold change: 0.9069
  MLXIPL log2FoldChange: -0.1409
  NR1H2 Fold change: 1.22
  NR1H2 log2FoldChange: 0.2868
  NR1H4 Fold change: 1.127
  NR1H4 log2FoldChange: 0.1725
  NR1I2 Fold change: 0.6165
  NR1I2 log2FoldChange: -0.6979
  NR1I3 Fold change: 0.09752
  NR1I3 log2FoldChange: -3.358
  NR3C1 Fold change: 1.06
  NR3C1 log2FoldChange: 0.08356
  PPARA Fold change: 0.907
  PPARA log2FoldChange: -0.1409
  PPARG Fold change: 2.875
  PPARG log2FoldChange: 1.5234
  RARA Fold change: 1.12
  RARA log2FoldChange: 0.164
  RARB Fold change: 3.072
  RARB log2FoldChange: 1.619
  RARG Fold change: 1.553
  RARG log2FoldChange: 0.6348
  SCD Fold change: 1.519
  SCD log2FoldChange: 0.6028
  SREBF1 Fold change: 0.7245
  SREBF1 log2FoldChange: -0.4649
